Data from patent US4973603A, “Platelet activating factor antagonist and methods of use therefor” (priority 1989, dated 1990).
“Also recorded” adds a separate entry of the source.

What was measured:
[1] = test system: platelet activating factor (PAF); assay: PAF Induced Paw Edema in the Mouse; type: in vivo, mouse (Charles River CD-1, female); details: for % Inhibition of Edema: 1 hour before PAF (1 ug/paw), 15 min after PAF
Description: The experimental procedure was adapted from Calhoun et al., Agents & Actions, 21:306-309 (1987). Charles River CD-1 female mice (20-25 G) were given a dose of Formula I, or phenidone, using peanut oil as a carrier. Control mice were given doses of the carrier alone. The drugs were administered orally in a 50 μl volume of peanut oil. One hour later, 1.0 μg of PAF dissolved in 50 μl of 5% ethanol-saline was injected subcutaneously into the plantar surface of the right hind paw. The volume of this injected foot to the level of the lateral malleous was measured by water displacement immediately before drug administration and again 15 minutes after PAF injection.
The effectiveness of each compound was analyzed in the following manner. The individual paw volumes were compared by a paired t test analysis in which predrug paw volumes were compared to paw volumes 15 minutes after PAF injection to determine the level of statistical significance. The percent inhibition of edema volume was obtained from the ratio of the mean predrug volume to the mean volume after PAF.

[2] = test system: platelet activating factor (PAF); assay: PAF Induced Mortality; type: in vivo, mouse (Charles River CD-1, female)
Description: The induction of mortality by the injection of low doses of PAF into mice has been described as a method for assessing the effectiveness of agents to antagonize the anaphylactic properties of PAF by J. M. Young, P. J. Maloney, S. W. Jubb and J. S. Clarke, in Prostaglandins, 30:545-551 (1985). Charles River CD-1 female mice (25-30 g) were given intraperitoneal injections of PAF (10 μg) dissolved in 100 μl of 5% ethanol-saline. […] Test drugs were orally administered in 50 μl of peanut oil one hour prior to PAF injection. Control mice were dosed with vehicle only. Mortality was assessed by counting survivors at one hour, two hours, and twenty four hours after the PAF injection.

[3] = test system: gastric mucosa
Description: Robert and Szabo, In: Selye's Guide to Stress Research, (Vol. 2, A. Selye, Ed.) New York; Van Nostrand Reinhold Co., pp. 22-46 (1983); and Robert et al., Gastroenterology, 77:433-443 (1979). Experimental groups of 5-11 rats (Charles River CD) were fasted for 24 hours before the administration of either aspirin, Formula I or indomethacin by a rubber stomach tube (Rusch No. 8). The animals were killed 1 hour later by carbon dioxide asphyxiation. At that time, 4 ml of 10% aqueous buffered formaldehyde (formalin) was injected directly into the stomach of each animal. […] After 5 minutes of in situ fixation, the stomach and proximal duodenum were removed, opened along the greater curvature, pinned on a cork with mucosa upward, and immersed in 10% formaldehyde until further processing. Szabo, S. et al., J. Pharmacol. Meth., 13:59-66 (1985). The gastric lesions were then evaluated by direct visual inspection.
For comparative purposes, a semiquantitative scale of 0-3 was used to assess the extent of gastric mucosal lesions. Szabo et al., Science, 214:200-202 (1981); and Szabo et al., Gastroenterology, 85:1384-1390 (1983). According to this scale, a score of 0 indicates a normal mucosa; 1 represents the appearance of between 1 and 4 small petechiae; 2 indicates the presence of 5 or more petechiae or hemmorhagic streaks up to 4 mm in length; 3 represents the appearance of erosions longer than 5 mm or confluent hemmorrhages.

[4] = test system: 5-HETE synthesis in mouse peritoneal macrophages; assay: Inhibition of 5-HETE Synthesis in mouse peritoneal macrophages; type: cell-based, mouse (CD-1, female); details: for 5-HETE (%) (percentage of total recovered radioactivity): vehicle 2.9 ± 0.16
Description: It has been proposed that products of lipoxygenase action such as leukotriene […] (LTB4) and 5-hydroxyeicosatetraenoic acid (5-HETE) can act synergistically with PAF to cause neutrophil degranulation which may contribute to the development of inflammation. J. T. O'Flaherty, J. Cell Biology, 122:229-239 (1985). Formula I was tested as an inhibitor of 5-HETE production in mouse peritoneal macrophages using the following procedure.
Peritoneal cells were collected from female CD-1 mice (20-25 g) following sacrifice by cervical dislocation. The cells from each group of mice were pooled, centrifuged and suspended in MEM. Aliquotes containing 4.5×10^6 cells in 3.0 ml MEM were placed in culture dishes and incubated for 18 hours at 37° C. By this procedure, a relatively homogenous monolayer of macrophages was obtained. Eicosanoid synthesis was brought about by the addition of ^14 C-arachidonic acid (2×10^5 dpm; 0.22 μM) followed by a calcium ionophore, A23187 (0.03 μM). After 15 minutes, the reaction was stopped by the addition of citric acid to pH4 and the products were extracted with ethyl acetate. Silica gel thin layer chromatography (hexane; ether; acetic acid; 50:50:1) was used to separate the 5-HETE which was identified by comparison with authentic material. Carbon-14 content was measured by liquid scintillation counting of the HETE containing zone. The significance of drug induced changes was calculated using the Student's test when compared with vehicle treated (ethanol, 30 μl) cells.

[5] = 20 mg/kg oral, 1 hr after PAF (10 μg i.p.)
[6] = 20 mg/kg oral, 2 hrs after PAF (10 μg i.p.)
[7] = 20 mg/kg oral, 24 hrs after PAF (10 μg i.p.)
[8] = 40 mg/kg oral, 1 hr after PAF (10 μg i.p.)
[9] = 40 mg/kg oral, 2 hrs after PAF (10 μg i.p.)
[10] = 40 mg/kg oral, 24 hrs after PAF (10 μg i.p.)
[11] = 80 mg/kg oral, 1 hr after PAF (10 μg i.p.)
[12] = 80 mg/kg oral, 2 hrs after PAF (10 μg i.p.)
[13] = 80 mg/kg oral, 24 hrs after PAF (10 μg i.p.)

SMILES: CCCCCc1cc(O)c2c(c1)OC(C)(C)C1CC=C(C(=O)O)CC21 (stereo not shown) [Formula I, 6a,7,10,10a-tetrahydro-6,6-dimethyl-9-carboxyl-3-pentyl-6H-dibenzo[b,d]pyran-1-ol]
- % Inhibition of Edema ([1]; 10 mg/kg oral): 21.8%
- % Inhibition of Edema ([1]; 20 mg/kg oral): 50.2%
- % Inhibition of Edema ([1]; 40 mg/kg oral): 46.2%
- antagonism of inflammatory actions of PAF (in words) ([1]; mouse paw edema, oral): effective antagonist to the inflammatory actions of PAF
- Survivors (%) [2, 5]: 25%
- Survivors/N [2, 5]: 5/20
- Survivors (%) [2, 6]: 25%
- Survivors/N [2, 6]: 5/20
- Survivors (%) [2, 7]: 25%
- Survivors/N [2, 7]: 5/20
- Survivors (%) [2, 8]: 80%
- Survivors/N [2, 8]: 12/15
- Survivors (%) [2, 9]: 80%
- Survivors/N [2, 9]: 12/15
- Survivors (%) [2, 10]: 80%
- Survivors/N [2, 10]: 12/15
- survival rate ([2]; 40 mg/kg oral, all time points (1, 2, 24 hours)): 80%
- Survivors (%) [2, 11]: 70%
- Survivors/N [2, 11]: 7/10
- Survivors (%) [2, 12]: 70%
- Survivors/N [2, 12]: 7/10
- Survivors (%) [2, 13]: 70%
- Survivors/N [2, 13]: 7/10
- antagonism of anaphylactic effects of PAF (in words) ([2]; oral, mouse): potent antagonist to the anaphylactic effects of PAF
- Incidence (rats with lesions/total tested) ([3]; 80 mg/kg by stomach tube, 1 hour): 0/10
- Mean Score ([3]; 80 mg/kg by stomach tube, 1 hour, scale 0-3 (0 = normal mucosa)): 0.0
- ulcer / gastric lesion formation (in words) ([3]; directly into the stomach, Formula I at twice its therapeutic dose in the mouse (40 mg/kg), 40 mg/kg): did not induce ulcer formation; also recorded: does not induce the formation of gastric lesions
- 5-HETE (%) (percentage of total recovered radioactivity) ([4]; 0.32 μM): 3.08 ± 0.36%
- 5-HETE (%) (percentage of total recovered radioactivity) ([4]; 1.6 μM): 3.03 ± 0.42%
- 5-HETE (%) (percentage of total recovered radioactivity) ([4]; 3.2 μM): 1.58 ± 0.41%
- 5-HETE (%) (percentage of total recovered radioactivity) ([4]; 4 μM): 1.68 ± 0.15%
- 5-HETE (%) (percentage of total recovered radioactivity) ([4]; 8 μM): 1.48 ± 0.87%
- 5-HETE (%) (percentage of total recovered radioactivity) ([4]; 16 μM): 3.10 ± 0.10%
- inhibition at 3.2 µM ([4]; Mus musculus, Peritoneal macrophage, 3.2 μM): 46%
- inhibition at 4 µM ([4]; Mus musculus, Peritoneal macrophage, 4 μM): 42%
- inhibition at 8 µM ([4]; Mus musculus, Peritoneal macrophage, 8 μM): 49%
- reduction of 5-HETE synthesis (in words) ([4]; dose range of 3.2 to 8 μM): reduces 5-HETE synthesis to one half of the control level
